What all share (assay): growth of human tumour cells (NCI), 48 h
The test system of assay [1] is CCRF-CEM leukemia.
Assay [2] has as its system U251 CNS.
The test system of assay [3] is HCC-2998 colon.
Assay [4] has as its system M14 melanoma.
The test system of assay [5] is EKVX NSCLC.
Assay [6] relates to NCI-H460 lung.
The subject of assay [7] is SNB-75 CNS.
In assay [8] the test system is CAKI-1 renal.
Assay [9] relates to HCT-116 colon.
Assay [10] relates to SK-MEL-28 melanoma.

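Step 1: Grow cells in 96-well plates. Step 2: Expose to compound for 48 hours at 5 concentrations. Step 3: Interpolate endpoints linearly; if unreached, use highest concentration. Definition used: TGI = concentration required for complete inhibition of growth.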

In the case of `OC(CCNCc1ccccc1)c1ccc2ccccc2c1` (stereo not drawn), the TGI is more than 100 µM in [1]; 30.6 µM in assay [2]; 62.8 µM in assay [3]; more than 100 µM in assay [4]; more than 100 µM in [5]; 35.1 µM in [6]. For the same compound, the TGI turned out to be 75.6 µM in [7], 42.6 µM in [8], 47.1 µM in assay [9] and 34 µM in assay [10].

Regarding `COC(=O)C(Cc1ccccc1)NP(=O)(O)OCC1OC(n2cc(F)c(=O)[nH]c2=O)CC1O` (stereo not drawn), the TGI in assay [2], in [3], in assay [4], in [5], in assay [6] and in [7] was more than 100 µM throughout. For the same compound, the TGI in assay [8], in [9] and in [10] was more than 100 µM throughout.

In the case of `CC(=O)Nc1ccc(OC2=CCN(C)CC2)cc1`, the TGI in assay [1], in assay [2], in [3], in [4], in [5] and in [6] was more than 100 µM throughout. For the same compound, the TGI in [7], in [8], in assay [9] and in [10] was more than 100 µM throughout.

As for `CCOc1cc(C2CC(c3ccc(NS(=O)(=O)c4cc([N+](=O)[O-])ccc4C)cc3)=NN2c2ccc([N+](=O)[O-])cc2[N+](=O)[O-])ccc1O` (stereo not drawn), the TGI in assay [1] is more than 100 µM; in assay [2], 29.2 µM; in [4] it was 31.6 µM; in assay [5], 22 µM; in [7], 35.3 µM; in assay [8] it was 56.5 µM. For the same compound, the TGI turned out to be 26.1 µM in [9] and 89.4 µM in assay [10].

Consider `c1ccc2c(c1)CCc1c-2n(CCN2CCOCC2)c2ccccc12`, for which the TGI was 61.5 µM in assay [1]; more than 100 µM in [2]; more than 100 µM in assay [3]; more than 100 µM in assay [4]; more than 100 µM in assay [5]; 92.9 µM in assay [6]. Also, the TGI in assay [8], in [9] and in assay [10] was more than 100 µM throughout.

Consider `O=C(Nc1nc2ccccc2s1)c1cc([N+](=O)[O-])ccc1Cl`, for which the TGI in assay [1] is 8.77 µM; in assay [2], more than 91.6 µM; in assay [3], 53.6 µM; in assay [4], more than 47.8 µM; in assay [5], more than 100 µM; in [6], more than 59.4 µM. The TGI in assay [7], in assay [8], in assay [9] and in [10] was more than 100 µM each time.

For `O=C(O)c1ccn(-c2cccc(-n3ccc(C(=O)O)n3)n2)n1`, the TGI in assay [1], in assay [2], in assay [4], in assay [5], in [6] and in assay [7] was more than 100 µM each time. Further, the TGI in assay [8], in assay [9] and in assay [10] was more than 100 µM each time.

For `COC(=O)c1c(OC(C)=O)ccc2c1c1c(n2C)C(=O)c2ccccc2C1=O`, the TGI in assay [2] was more than 100 µM; in assay [3] it was 63.5 µM; in assay [4] it was more than 100 µM; in [5], 92.7 µM; in [6], more than 100 µM; in assay [7], 41.3 µM. The TGI was 61.7 µM in assay [8], more than 100 µM in assay [9] and more than 100 µM in assay [10].

`COC(=O)c1c(O)ccc2c1c1c(n2Cc2cccc(C)c2)C(=O)c2ccccc2C1=O`: the TGI is 22.5 µM in assay [1]; 24.4 µM in assay [2]; 6.36 µM in assay [3]; 32.3 µM in [4]; 37.9 µM in [5]; 16.7 µM in assay [6]. Besides, the TGI came out at 25.7 µM in assay [8], 20.2 µM in [9] and 29.1 µM in [10].

Consider `COc1ccc(-n2c(=O)n(C)c(=O)n2-c2ccc(OC)cc2)cc1`, for which the TGI in assay [1], in [2], in [4], in assay [5], in assay [6] and in assay [7] was more than 100 µM in each case. Also, the TGI in assay [8], in assay [9] and in [10] was more than 100 µM throughout.

As for `CSc1n[nH]c(N)c1C(=O)Nc1ccc(C)cc1`, the TGI in [1], in assay [2], in [3], in [4], in assay [5] and in assay [6] was more than 100 µM each time. The TGI in assay [8], in [9] and in [10] was more than 100 µM in each case.

With `COc1ccc2nc3cc([N+](=O)[O-])ccc3c(Nc3ccc(S(=O)(=O)NC(C)=O)cc3)c2c1`, the TGI in assay [1], in assay [2], in [3], in assay [4], in assay [5] and in [6] was more than 100 µM in each case. The TGI in [8], in assay [9] and in assay [10] was more than 100 µM in each case.

As to `COc1ccccc1NC(=O)CC(=O)N1N=C(C)C(N=Nc2ccc(C(=O)O)cc2)C1=O` (stereo not drawn), the TGI is more than 100 µM in assay [1]; more than 100 µM in assay [2]; more than 100 µM in assay [3]; more than 100 µM in [4]; more than 100 µM in assay [5]; 6.06 µM in assay [7]. In addition, the TGI in [8], in assay [9] and in [10] was more than 100 µM each time.

For the compound `C#CCSC(C=C=C)P(=O)(OC(C)C)OC(C)C` (stereo not drawn), the TGI in [2] is more than 100 µM; in assay [3], 75.1 µM; in assay [4], more than 100 µM; in assay [5], more than 100 µM; in assay [6] it was more than 100 µM; in assay [7], more than 100 µM. Also, the TGI was more than 100 µM in assay [8], 62.8 µM in assay [9] and more than 100 µM in assay [10].
